According to patent US20080319175A1, “Transthyretin Stabilization” (The Scripps Research Institute, priority 2004, published 2008):

Key:
[1] = molecular target: T1, WT-TTR (Homo sapiens, UniProt P02766); assay: time course analysis of WT-TTR fibril formation inhibition (turbidity at 500 nm); assay type: biochemical; conditions: WT-TTR 3.6 μM; for TTR amyloidogenesis mediated by partial acidification relative to control: inhibitor 7.2 and 3.6 μM, pH 4.4
T1 construct: made in house
Excerpt: (§1) The ability of these inhibitors to impose kinetic stability on tetrameric TTR is best evaluated by assessing the rate of TTR tetramer dissociation (Hammarstrom, P.; et al. Science 2003, 299, 713-716; Hammarstrom, P.; et al. Proc. Natl. Acad. Sci. USA 2002, 99, 16427-16432). Under acidic conditions tetramer dissociation leads to amyloidogenesis, whereas in the presence of chaotropes (6M urea), tetramer dissociation leads to monomer unfolding. The influence of inhibitors 25, 47 and 64, representing the three structural classes of dibenzofuran-based inhibitors, on the rates of tetramer dissociation under acid- and urea-mediated denaturing conditions was probed. […] The rate of TTR tetramer dissociation in 6M urea is easily monitored by linking the slow quaternary structural changes to rapid tertiary structural changes that are easily monitored by spectroscopic methods (Hammarstrom, P.; et al. Proc. Natl. Acad. Sci. USA 2002, 99, 16427-16432).
Time course analysis of WT-TTR fibril formation inhibition by compounds 25, 47, and 64. Compounds 25, 47, and 64 were dissolved in DMSO to provide 7.2 mM primary stock solutions (10× stocks), from which 5- and 10-fold DMSO dilutions yielded 1.44 mM (2×) and 0.72 mM (1×) secondary stock solutions, respectively. 495 μL of 0.4 mg/mL (7.2 μM) WT-TTR solution (10 mM sodium phosphate, 100 mM KCl, and 1 mM EDTA, pH 7.2), and 5 μL of either the 1.44 or 0.72 mM inhibitor secondary stock solutions were added to disposable UV cuvettes, vortexed briefly, then incubated for 30 min at 25° C. The pH was then adjusted to 4.4 with addition of 500 μL of acidic buffer (100 mM acetate, 100 mM KCl, 1 mM EDTA, pH 4.2), and the final 1 mL solutions were vortexed again and incubated in the dark at 37° C. without agitation. At 0, 4, 8, 12, 25, 49, 74, 100, 122, 145, and 169 h time points after acidification, the solutions were vortexed and the turbidity at 500 nm was measured. Control samples containing 5 μL of pure DMSO were prepared and analyzed as above for comparison. Small molecule and TTR control samples were prepared in groups of 10 to prevent disturbance of the cuvettes during incubation. Samples were discarded after their turbidities were measured.
FIG. 10 is a plot of the timecourse analysis of WT-TTR (3.6 μM) fibril formation mediated by partial acid denaturation in the absence (▴) and presence of 7.2 μM (⋄) and 3.6 μM (∘) inhibitors 25, 47, and 64, as measured by turbidity at 500 nm (see color scheme within Figure to differentiate inhibitors). It is hard to discern which compound is most efficacious in the black and white plot.

[2] = molecular target: T1, WT-TTR; assay: time course analysis of WT-TTR tetramer dissociation in urea (far-UV CD); assay type: biochemical; conditions: for rate of TTR tetramer dissociation monitored by far-UV CD: 6M urea, TTR 3.6 μM, inhibitor 7.2 and 3.6 μM; for rank in tetramer dissociation time course at the end of the plot: after 169 hours, 6.0 M urea, WT-TTR 3.6 μM
Excerpt: as §1
Time course analysis of WT-TTR tetramer dissociation inhibition by compounds 25, 47, and 64 evaluated by linked-monomer unfolding in urea. Compounds 25, 47, and 64 were dissolved in DMSO to provide 10 mM primary stock solutions, from which 10-fold EtOH dilutions yielded 1 mM secondary stock solutions. 200 μL of 1.0 mg/mL (18 μM) WT-TTR solution (50 mM sodium phosphate, 100 mM KCl, and 1 mM EDTA, pH 7.2), and either 7.2 or 3.6 μL (2× and 1×, respectively) of 1 mM inhibitor secondary stock solutions were added to 2 mL eppendorf tubes, vortexed briefly, and incubated for 15 min at 25° C. 100 μL of the TTR•inhibitor solutions were added to 900 μL of urea buffer (6.67 M urea, 50 mM sodium phosphate, 100 mM KCl, 1 mM EDTA, pH 7.2), and the final 1 mL solutions were vortexed again and incubated in the dark at 25° C. without agitation. At 0, 4, 11, 24, 49, 73, 97, 122, 146, and 170 h time points after mixing with urea, the circular dichroism spectra were measured between […], with scanning every 0.5 nm and averaging for 5 s. After measurements were taken, samples were returned to their respective eppendorf tubes and incubation was continued. Control samples containing 7.2 μL of 10% DMSO in EtOH were prepared and analyzed as above for comparison. The CD amplitude values were averaged between 215 and 218 nm to determine the extent of β-sheet loss throughout the experiment. TTR tetramer dissociation is linked to the rapid (˜500,000× faster) monomer denaturation as measured through this β-sheet loss (Hammarstrom, P.; et al. Proc. Natl. Acad. Sci. USA 2002, 99, 16427-16432).
FIG. 11 is a plot of the timecourse analysis of WT-TTR (3.6 μM) tetramer dissociation (6.0 M urea) in the absence (▴) and presence of 7.2 μM (⋄) and 3.6 μM (∘) concentrations of inhibitors 25, 47, and 64 (see color scheme within Figure to differentiate inhibitors). Slow tetramer dissociation is not detectable by far-UV CD spectroscopy, but this process is linked to rapid (˜500,000× faster) monomer denaturation as monitored by loss of β-sheet content easily followed by circular dichroism spectroscopy. It is hard to discern which compound is most efficacious in the black and white plot.

[3] = precipitation of small molecule under acid-mediated amyloidogenic conditions in the absence of TTR; assay type: physicochemical; conditions: 3.6 μM, pH 4.4, 37° C., 72 h
Procedure: TTR amyloid inhibition efficacy was probed using a stagnant fibril formation assay described previously, wherein partial denaturation was triggered by acidification (pH 4.4, 37° C.) (Colon, W.; Kelly, J. W. Biochemistry 1992, 31, 8654-8660). Briefly, a test compound (7.2 or 3.6 μM) is incubated with TTR (3.6 μM) for 30 min in pH 7 buffer. Amyloidogenesis is then initiated by lowering to pH 4.4, where maximal fibril formation is observed with WT-TTR after 72 h (37° C.). The turbidity in the presence of a potential inhibitor (Ttest) is compared to that of a solution lacking a test compound (Tcontrol). […] From experience we know that excellent inhibitors allow <10% fibril formation at a small molecule concentration of 7.2 μM and <40% fibril formation at a concentration equal to that of WT-TTR (3.6 μM) (Hammarstrom, P.; et al. Science 2003, 299, 713-716; Klabunde, T.; et al. Nature Struct. Biol. 2000, 7, 312-321; Razavi, H.; et al. Angew Chem 2003, 42, 2758-2761; Miroy, G. J.; et al. Proc. Natl. Acad. Sci. USA 1996, 93, 15051-15056; Peterson, S. A.; et al. Proc. Natl. Acad. Sci. USA 1998, 95, 12956-12960; Baures, P. W.; et al. Bioorg. Med. Chem. 1998, 6, 1389-1401; Baures, P. W.; et al. Bioorg. Med. Chem. 1999, 7, 1339-1347; Petrassi, H. M.; et al. J. Am. Chem. Soc. 2000, 122, 2178-2192; McCammon, M. G.; et al. Structure 2002, 10, 851-863; Oza, V. B.; et al. J. Med. Chem. 2002, 45, 321-332; Sacchettini, J. C.; et al. Nature Rev. Drug Disc. 2002, 1, 267-275; Green, N. S.; et al. J. Am. Chem. Soc. 2003, 125, 13404-13414; Adamski-Werner, S. L.; et al. J. Med. Chem. 2004, 47, 355-374; Miller Sean, R.; et al. Lab. Inv. 2004, 84, 545-552). […] Therefore, when both the ligand and TTR are at equal concentrations, a population of TTR•I, TTR•I2 and unliganded TTR is observed, dictated by the dissociation constants. It is now established by other studies that inhibitor occupancy of only one of the two TTR binding sites is sufficient to stabilize the entire tetramer against amyloidogenesis (Wiseman, R. L.; et al. J. Am. Chem. Soc. 2005, in press). This is further supported by the observation herein that twenty-six of these dibenzofurans are excellent TTR amyloidogenesis inhibitors (<40% fibril formation) at a concentration equal to that of TTR (3.6 μM each, FIG. 3).

SMILES | TTR amyloidogenesis mediated by partial acidification relative to control [1] | rate of TTR tetramer dissociation monitored by far-UV CD [2] | rank in tetramer dissociation time course at the end of the plot [2] | precipitation of compound in the absence of TTR [3] | rank by fibrils formed at the end of the time course ([1]; after 169 hours, partial acid denaturation)
O=C(O)c1cccc2c1oc1c(C(=O)O)ccc(Nc3ccccc3C(F)(F)F)c12 [Compound 25] | dramatically slowed in a dose-dependent fashion | markedly slowed in a dose-dependent fashion | most effective in dissociating tetramers | no measurable precipitation | –
O=C(O)c1cccc2c1oc1c(C(=O)O)ccc(Oc3cc(Cl)cc(Cl)c3)c12 [Compound 47] | dramatically slowed in a dose-dependent fashion | markedly slowed in a dose-dependent fashion | – | no measurable precipitation | shows the most fibrils formed
O=C(O)c1cccc2c1oc1c(C(=O)O)ccc(-c3cc(C(F)(F)F)cc(C(F)(F)F)c3)c12 [Compound 64] | dramatically slowed in a dose-dependent fashion | markedly slowed in a dose-dependent fashion | followed by compound 64 | – | –
